Experimental data reported in US8846933B2, “N-link hydroxamic acid derivatives useful as antibacterial agents” (Pfizer Inc., priority 2009, dated 2014).

Experiments:
[1] = system: Pseudomonas aeruginosa UI-18: Wild-type (PA-7); experiment: MIC determination (CLSI), strain PA-7; type: cell-based; conditions: strain PA-7; unit assumed
In short: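 MIC determined by broth dilution per CLSI M7-A7 guidelines with M100-S18 interpretive standards. Test organism: wild-type Pseudomonas aeruginosa UI-18, designated PA-7.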

[2] = system: Escherichia coli EC-1: VOGEL, mouse virulent; experiment: MIC determination (CLSI), strain EC-1; type: cell-based; conditions: strain EC-1; unit assumed
In short: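 The mouse-virulent VOGEL isolate of E. coli, EC-1, served as test organism. Minimum inhibitory concentration was measured by CLSI dilution methodology (M7-A7; M100-S18 standards).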

| SMILES | PA-7 (MIC) [1] | EC-1 (MIC) [2] |
| --- | --- | --- |
| COc1ncc(-c2ccc(-c3ccn(CC[C@](C)(C(=O)NO)S(C)(=O)=O)c(=O)c3)cc2)cn1 [Example 410, (2R)-N-hydroxy-4-{4-[4-(2-methoxypyrimidin-5-yl)phenyl]-2-oxopyridin-1(2H)-yl}-2-methyl-2-(methylsulfonyl)butanamide] | 1 µg/mL | 0.5 µg/mL |
| C[C@@](CCn1ccc(-c2ccc(-c3ccno3)cc2)cc1=O)(C(=O)NO)S(C)(=O)=O [Example 411, (2R)-N-hydroxy-4-[4-(4-isoxazol-5-ylphenyl)-2-oxopyridin-1(2H)-yl]-2-methyl-2-(methylsulfonyl)butanamide] | 0.5 µg/mL | 0.5 µg/mL |
| Cc1c(-c2ccc(C#N)cc2F)ccn(CC[C@](C)(C(=O)NO)S(C)(=O)=O)c1=O [Example 412, (2R)-4-[4-(4-cyano-2-fluorophenyl)-3-methyl-2-oxopyridin-1(2H)-yl]-N-hydroxy-2-methyl-2-(methylsulfonyl)butanamide] | 4 µg/mL | 8 µg/mL |
| Cc1c(-c2cccc(Cl)c2F)ccn(CC[C@](C)(C(=O)NO)S(C)(=O)=O)c1=O [Example 413, (2R)-4-[4-(3-chloro-2-fluorophenyl)-3-methyl-2-oxopyridin-1(2H)-yl]-N-hydroxy-2-methyl-2-(methylsulfonyl)butanamide] | 2 µg/mL | 2 µg/mL |
| Cc1c(-c2cccc(Cl)c2Cl)ccn(CC[C@](C)(C(=O)NO)S(C)(=O)=O)c1=O [Example 414, (2R)-4-[4-(2,3-dichlorophenyl)-3-methyl-2-oxopyridin-1(2H)-yl]-N-hydroxy-2-methyl-2-(methylsulfonyl)butanamide] | 8 µg/mL | 2 µg/mL |
| C[C@@](CCn1ccc(-c2ccc(-c3ccc(C#N)nc3)cc2)cc1=O)(C(=O)NO)S(C)(=O)=O [Example 415] | 2 µg/mL | 1 µg/mL |
| Cc1nnn(-c2ccc(-c3ccn(CC[C@](C)(C(=O)NO)S(C)(=O)=O)c(=O)c3)cc2)c1C [Example 416, (2R)-4-{4-[4-(4,5-dimethyl-1H-1,2,3-triazol-1-yl)phenyl]-2-oxopyridin-1(2H)-yl}-N-hydroxy-2-methyl-2-(methylsulfonyl)butanamide] | 32 µg/mL | 64 µg/mL |
| C[C@@](CCn1ccc(-c2ccc(-c3ncno3)cc2)cc1=O)(C(=O)NO)S(C)(=O)=O [Example 417, (2R)-N-hydroxy-2-methyl-2-(methylsulfonyl)-4-{4-[4-(1,2,4-oxadiazol-5-yl)phenyl]-2-oxopyridin-1(2H)-yl}butanamide] | 64 µg/mL | 8 µg/mL |
| C[C@@](CCn1ccc(-c2ccc(CO)nc2)cc1=O)(C(=O)NO)S(C)(=O)=O [Example 418, (2R)-N-hydroxy-4-[6-(hydroxymethyl)-2′-oxo-3,4′-bipyridin-1′(2′H)-yl]-2-methyl-2-(methylsulfonyl)butanamide] | 64 µg/mL | > 64 µg/mL |
| C[C@@](CCn1ccc(-c2ccc(-c3ncns3)cc2)cc1=O)(C(=O)NO)S(C)(=O)=O [Example 419, (2R)-N-hydroxy-2-methyl-2-(methylsulfonyl)-4-{2-oxo-4-[4-(1,2,4-thiadiazol-5-yl)phenyl]pyridin-1(2H)-yl}butanamide] | 1 µg/mL | 0.25 µg/mL |
| Cc1cnc(N2CC=C(c3ccn(CC[C@](C)(C(=O)NO)S(C)(=O)=O)c(=O)c3)CC2)nc1 [Example 420, (2R)-N-hydroxy-2-methyl-4-[1′-(5-methylpyrimidin-2-yl)-2-oxo-1′,2′,3′,6′-tetrahydro-4,4′-bipyridin-1(2H)-yl]-2-(methylsulfonyl)butanamide] | 8 µg/mL | 4 µg/mL |
| C[C@@](CCn1ccc(-c2ccc(-n3cnnn3)cc2)cc1=O)(C(=O)NO)S(C)(=O)=O [Example 421, (2R)-N-hydroxy-2-methyl-2-(methylsulfonyl)-4-{2-oxo-4-[4-(1H-tetrazol-1-yl)phenyl]pyridin-1(2H)-yl}butanamide] | 64 µg/mL | > 64 µg/mL |
| Cc1cccc(-c2ccc(-c3ccn(CC[C@](C)(C(=O)NO)S(C)(=O)=O)c(=O)c3)cc2)n1 [Example 422, (2R)-N-hydroxy-2-methyl-4-{4-[4-(6-methylpyridin-2-yl)phenyl]-2-oxopyridin-1(2H)-yl}-2-(methylsulfonyl)butanamide] | 4 µg/mL | 0.5 µg/mL |
| C[C@@](CCn1ccc(-c2ccc(-c3cncnc3)cc2)cc1=O)(C(=O)NO)S(C)(=O)=O [Example 423] | 4 µg/mL | 1 µg/mL |
| C[C@@](CCn1ccc(-c2ccc(Oc3ncccn3)cc2)cc1=O)(C(=O)NO)S(C)(=O)=O [Example 424, (2R)-N-hydroxy-2-methyl-2-(methylsulfonyl)-4-{2-oxo-4-[4-(pyrimidin-2-yloxy)phenyl]pyridin-1(2H)-yl}butanamide] | 4 µg/mL | 4 µg/mL |
| C[C@@](CCn1ccc(-c2ccc(Oc3ccccc3C#N)cc2)cc1=O)(C(=O)NO)S(C)(=O)=O [Example 426, (2R)-4-{4-[4-(2-cyanophenoxy)phenyl]-2-oxopyridin-1(2H)-yl}-N-hydroxy-2-methyl-2-(methylsulfonyl)butanamide] | 1 µg/mL | 0.25 µg/mL |

| SMILES | PA-7 (MIC) [1] | EC-1 (MIC) [2] |
| --- | --- | --- |
| C[C@@](CCn1ccc(-c2ccc(Oc3ncccc3C#N)cc2)cc1=O)(C(=O)NO)S(C)(=O)=O [Example 427, (2R)-4-[4-{4-[(3-cyanopyridin-2-yl)oxy]phenyl}-2-oxopyridin-1(2H)-yl]-N-hydroxy-2-methyl-2-(methylsulfonyl)butanamide] | 2 µg/mL | 2 µg/mL |
| C[C@@](CCn1ccc(-c2ccc(Oc3cc(Cl)ccn3)cc2)cc1=O)(C(=O)NO)S(C)(=O)=O [Example 428, (2R)-4-[4-{4-[(4-chloropyridin-2-yl)oxy]phenyl}-2-oxopyridin-1(2H)-yl]-N-hydroxy-2-methyl-2-(methylsulfonyl)butanamide] | 1 µg/mL | 0.125 µg/mL |
| C[C@@](CCn1ccc(-c2ccc(Oc3ccc(Cl)cn3)cc2)cc1=O)(C(=O)NO)S(C)(=O)=O [Example 430, (2R)-4-[4-{4-[(5-chloropyridin-2-yl)oxy]phenyl}-2-oxopyridin-1(2H)-yl]-N-hydroxy-2-methyl-2-(methylsulfonyl)butanamide] | 2 µg/mL | 0.125 µg/mL |
| C[C@@](CCn1ccc(-c2ccc(Oc3ccccn3)cc2)cc1=O)(C(=O)NO)S(C)(=O)=O [Example 436, (2R)-N-hydroxy-2-methyl-2-(methylsulfonyl)-4-{2-oxo-4-[4-(pyridin-2-yloxy)phenyl]pyridin-1(2H)-yl}butanamide] | 2 µg/mL | 0.5 µg/mL |
| C[C@@](CCn1ccc(-c2ccc(Oc3nccc4occc34)cc2)cc1=O)(C(=O)NO)S(C)(=O)=O [Example 437, (2R)-4-{4-[4-(furo[3,2-c]pyridin-4-yloxy)phenyl]-2-oxopyridin-1(2H)-yl}-N-hydroxy-2-methyl-2-(methylsulfonyl)butanamide] | 4 µg/mL | 0.25 µg/mL |
| Cc1ccc(C#N)c(Oc2ccc(-c3ccn(CC[C@](C)(C(=O)NO)S(C)(=O)=O)c(=O)c3)cc2)n1 [Example 438, (2R)-4-[4-{4-[(3-cyano-6-methylpyridin-2-yl)oxy]phenyl}-2-oxopyridin-1(2H)-yl]-N-hydroxy-2-methyl-2-(methylsulfonyl)butanamide] | 8 µg/mL | 4 µg/mL |
| C[C@@](CCn1ccc(-c2ccc(Oc3ncccc3Cl)cc2)cc1=O)(C(=O)NO)S(C)(=O)=O [Example 440, (2R)-4-[4-{4-[(3-chloropyridin-2-yl)oxy]phenyl}-2-oxopyridin-1(2H)-yl]-N-hydroxy-2-methyl-2-(methylsulfonyl)butanamide] | 2 µg/mL | 0.06 µg/mL |
| C[C@@](CCn1ccc(-c2ccc(Oc3cccnc3C#N)cc2)cc1=O)(C(=O)NO)S(C)(=O)=O [Example 442, (2R)-4-[4-{4-[(2-cyanopyridin-3-yl)oxy]phenyl}-2-oxopyridin-1(2H)-yl]-N-hydroxy-2-methyl-2-(methylsulfonyl)butanamide] | 4 µg/mL | 4 µg/mL |
| C[C@@](CCn1ccc(-c2ccc(Oc3ccnc4ccccc34)cc2)cc1=O)(C(=O)NO)S(C)(=O)=O [Example 444] | 2 µg/mL | 0.125 µg/mL |
| C[C@@](CCn1ccc(-c2ccc(Oc3nc4ccccc4s3)cc2)cc1=O)(C(=O)NO)S(C)(=O)=O [Example 445] | 4 µg/mL | 0.25 µg/mL |
| C[C@@](CCn1ccc(-c2ccc(Oc3noc4ccccc34)cc2)cc1=O)(C(=O)NO)S(C)(=O)=O [Example 450, (2R)-4-{4-[4-(1,2-benzisoxazol-3-yloxy)phenyl]-2-oxopyridin-1(2H)-yl}-N-hydroxy-2-methyl-2-(methylsulfonyl)butanamide] | 2 µg/mL | 0.06 µg/mL |
| C[C@@](CCn1ccc(-c2cc(F)cc(Cl)c2Cl)cc1=O)(C(=O)NO)S(C)(=O)=O [Example 451, (2R)-4-[4-(2,3-dichloro-5-fluorophenyl)-2-oxopyridin-1(2H)-yl]-N-hydroxy-2-methyl-2-(methylsulfonyl)butanamide] | 4 µg/mL | 4 µg/mL |
| COc1ccc(-c2ccn(CC[C@](C)(C(=O)NO)S(C)(=O)=O)c(=O)c2)c(Cl)c1Cl [Example 452, (2R)-4-[4-(2,3-dichloro-4-methoxyphenyl)-2-oxopyridin-1(2H)-yl]-N-hydroxy-2-methyl-2-(methylsulfonyl)butanamide] | 2 µg/mL | 4 µg/mL |
| C[C@@](CCn1ccc(-c2ccc(-c3cccnn3)cc2)cc1=O)(C(=O)NO)S(C)(=O)=O [Example 453, (2R)-N-hydroxy-2-methyl-2-(methylsulfonyl)-4-[2-oxo-4-(4-pyridazin-3-ylphenyl)pyridin-1(2H)-yl]butanamide] | 8 µg/mL | 4 µg/mL |
| C[C@@](CCn1ccc(-c2ccc(-c3cnoc3)cc2)cc1=O)(C(=O)NO)S(C)(=O)=O [Example 454, (2R)-N-hydroxy-4-[4-(4-isoxazol-4-ylphenyl)-2-oxopyridin-1(2H)-yl]-2-methyl-2-(methylsulfonyl)butanamide] | 4 µg/mL | 2 µg/mL |
